Consider four compounds from ChEMBL document CHEMBL2057131, “Novel steroid inhibitors of glucose 6-phosphate dehydrogenase” (J Med Chem, 2012).

In brackets after ≈: the same amount, converted by molar mass. Where only a bound is given, the exact number is not on record here.

The target of data set [1] is T1, Glucose-6-phosphate 1-dehydrogenase (Homo sapiens, UniProt P11413). Put plainly: Inhibition of G6PD in HEK293T cells assessed as accumulation of 6-phosphogluconate after 5 hrs by LC-MS/MS analysis using 6-aminonicotinamide. Format: cell-based, HEK-293T.
T1 sequence (P11413 whole entry): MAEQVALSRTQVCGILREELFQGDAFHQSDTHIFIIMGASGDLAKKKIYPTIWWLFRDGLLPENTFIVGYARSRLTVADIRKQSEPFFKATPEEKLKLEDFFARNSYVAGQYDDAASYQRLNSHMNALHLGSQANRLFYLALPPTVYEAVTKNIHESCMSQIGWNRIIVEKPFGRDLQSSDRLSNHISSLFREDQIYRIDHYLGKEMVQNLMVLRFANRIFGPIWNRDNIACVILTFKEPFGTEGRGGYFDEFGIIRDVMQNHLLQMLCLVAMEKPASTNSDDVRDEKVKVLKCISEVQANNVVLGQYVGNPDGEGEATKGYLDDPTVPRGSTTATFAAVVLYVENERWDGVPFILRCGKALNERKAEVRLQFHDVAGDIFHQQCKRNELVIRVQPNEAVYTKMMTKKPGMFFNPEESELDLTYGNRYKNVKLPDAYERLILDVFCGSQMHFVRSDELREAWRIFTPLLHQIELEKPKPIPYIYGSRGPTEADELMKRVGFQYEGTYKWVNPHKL
A short description of data set [2]: Permeability of the compound from apical to basolateral side of human Caco2 cells. In kind it is ADME, cell-based. To be noted: Caco-2, read-out: permeability.
Data set [3] is described as follows: Aqueous solubility of the compound in phosphate buffer by turbidimetric method. In kind it is physicochemical.
Data set [4] concerns the target T1, Glucose-6-phosphate 1-dehydrogenase. Put plainly: Inhibition of human recombinant N-terminal His tagged G6PD expressed in Escherichia coli JM109 (DE3) cells assessed as production of NADPH after 30 mins by Amplite fluorimetric assay.
The next data set in a line: in vitro. To be noted: human, liver microsomes.
Data set [5] concerns the target T1, Glucose-6-phosphate 1-dehydrogenase. The data set is described as follows: Ratio of IC50 for G6PD in HEK293T cells to IC50 for human recombinant G6PD expressed in Escherichia coli JM109 (DE3) cells. To be noted: HEK-293T.
Data set [6] can be described thus: Efflux ratio of permeability of the compound from basolateral to apical side over apical to basolateral side of human Caco2 cells. Format: ADME, cell-based. To be noted: Caco-2.
Data set [7] can be described thus: Half life in human liver microsomes. Format: ADME, Microsome. For orientation: Microsomes from liver hold many membrane-bound enzymes, among them those of drug oxidation.
For the next data set, the target named is T2, Cytochrome P450 1A (Homo sapiens, UniProt P04798+P05177).
T2 sequence (P04798 whole entry): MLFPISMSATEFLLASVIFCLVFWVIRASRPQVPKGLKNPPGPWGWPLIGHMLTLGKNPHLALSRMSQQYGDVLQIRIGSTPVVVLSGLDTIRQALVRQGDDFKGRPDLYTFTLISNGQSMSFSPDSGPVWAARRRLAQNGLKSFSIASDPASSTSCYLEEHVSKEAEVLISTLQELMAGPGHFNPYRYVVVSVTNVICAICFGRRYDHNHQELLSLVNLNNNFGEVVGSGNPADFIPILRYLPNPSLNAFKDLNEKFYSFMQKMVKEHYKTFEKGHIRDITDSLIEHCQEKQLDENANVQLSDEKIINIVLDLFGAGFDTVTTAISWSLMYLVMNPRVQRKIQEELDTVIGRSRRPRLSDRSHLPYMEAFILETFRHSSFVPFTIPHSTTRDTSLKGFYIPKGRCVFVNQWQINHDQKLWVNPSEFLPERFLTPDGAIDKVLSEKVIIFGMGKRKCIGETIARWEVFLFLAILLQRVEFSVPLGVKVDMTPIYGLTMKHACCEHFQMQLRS
T2 sequence (P05177 whole entry): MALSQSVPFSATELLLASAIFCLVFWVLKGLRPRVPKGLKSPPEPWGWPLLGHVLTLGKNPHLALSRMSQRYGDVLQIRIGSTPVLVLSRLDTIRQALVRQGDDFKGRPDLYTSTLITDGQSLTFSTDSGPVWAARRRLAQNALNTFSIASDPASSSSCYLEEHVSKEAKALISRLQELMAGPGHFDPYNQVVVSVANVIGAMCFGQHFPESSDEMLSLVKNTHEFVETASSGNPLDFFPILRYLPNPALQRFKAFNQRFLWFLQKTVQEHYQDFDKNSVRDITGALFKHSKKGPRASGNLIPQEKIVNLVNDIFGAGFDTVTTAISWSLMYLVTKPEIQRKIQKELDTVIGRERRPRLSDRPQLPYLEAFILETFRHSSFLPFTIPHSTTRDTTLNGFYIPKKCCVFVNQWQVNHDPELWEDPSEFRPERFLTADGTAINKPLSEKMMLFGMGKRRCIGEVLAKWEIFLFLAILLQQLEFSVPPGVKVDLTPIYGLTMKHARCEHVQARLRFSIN
Put plainly: Inhibition of CYP1A at > 25 uM. In kind it is ADME.

A further data set has as its target Cytochrome P450 2C19 (Homo sapiens, UniProt P33261). The data set is described as follows: Inhibition of CYP2C19 at > 25 uM. In kind it is ADME.
The next data set addresses Cytochrome P450 2D6 (Homo sapiens, UniProt P10635). The data set is described as follows: Inhibition of CYP2D6 at > 25 uM. Format: ADME.
The target in another data set is Cytochrome P450 3A4 (Homo sapiens, UniProt P08684). The data set is described as follows: Inhibition of CYP3A4 at > 25 uM. Format: ADME.
Sequence of Cytochrome P450 3A4 (P08684 whole entry): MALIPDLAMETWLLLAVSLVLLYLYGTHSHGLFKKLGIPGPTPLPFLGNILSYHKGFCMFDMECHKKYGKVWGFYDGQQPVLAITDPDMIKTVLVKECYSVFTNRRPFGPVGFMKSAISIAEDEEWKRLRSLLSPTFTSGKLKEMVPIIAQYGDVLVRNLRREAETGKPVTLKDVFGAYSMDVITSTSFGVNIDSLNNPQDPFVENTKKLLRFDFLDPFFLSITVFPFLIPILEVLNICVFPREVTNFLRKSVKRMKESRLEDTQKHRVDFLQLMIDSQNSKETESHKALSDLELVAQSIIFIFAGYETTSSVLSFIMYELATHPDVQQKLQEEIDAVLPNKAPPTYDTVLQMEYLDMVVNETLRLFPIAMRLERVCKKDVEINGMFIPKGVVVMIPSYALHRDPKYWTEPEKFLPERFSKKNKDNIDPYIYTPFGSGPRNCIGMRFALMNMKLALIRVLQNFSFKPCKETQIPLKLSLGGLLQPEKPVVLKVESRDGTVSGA
Another data set concerns the target Cytochrome P450 2C9 (Homo sapiens, UniProt P11712). Put plainly: Inhibition of CYP2C9 at > 25 uM. In kind it is ADME.

Sequence of Cytochrome P450 2C19 (P33261 whole entry): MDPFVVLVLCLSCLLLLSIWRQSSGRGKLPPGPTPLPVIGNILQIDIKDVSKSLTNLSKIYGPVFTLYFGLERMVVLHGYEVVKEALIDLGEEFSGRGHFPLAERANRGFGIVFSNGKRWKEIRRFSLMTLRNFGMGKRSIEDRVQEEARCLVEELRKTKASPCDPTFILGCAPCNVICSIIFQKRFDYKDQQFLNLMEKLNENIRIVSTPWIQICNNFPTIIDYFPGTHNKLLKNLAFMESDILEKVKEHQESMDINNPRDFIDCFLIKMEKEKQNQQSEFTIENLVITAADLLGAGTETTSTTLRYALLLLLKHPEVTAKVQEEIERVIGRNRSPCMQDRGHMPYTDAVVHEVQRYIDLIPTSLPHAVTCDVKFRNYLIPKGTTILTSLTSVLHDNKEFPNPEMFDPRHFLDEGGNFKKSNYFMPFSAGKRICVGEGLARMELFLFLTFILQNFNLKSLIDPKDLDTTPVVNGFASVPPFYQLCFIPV
Sequence of Cytochrome P450 2D6 (P10635 whole entry): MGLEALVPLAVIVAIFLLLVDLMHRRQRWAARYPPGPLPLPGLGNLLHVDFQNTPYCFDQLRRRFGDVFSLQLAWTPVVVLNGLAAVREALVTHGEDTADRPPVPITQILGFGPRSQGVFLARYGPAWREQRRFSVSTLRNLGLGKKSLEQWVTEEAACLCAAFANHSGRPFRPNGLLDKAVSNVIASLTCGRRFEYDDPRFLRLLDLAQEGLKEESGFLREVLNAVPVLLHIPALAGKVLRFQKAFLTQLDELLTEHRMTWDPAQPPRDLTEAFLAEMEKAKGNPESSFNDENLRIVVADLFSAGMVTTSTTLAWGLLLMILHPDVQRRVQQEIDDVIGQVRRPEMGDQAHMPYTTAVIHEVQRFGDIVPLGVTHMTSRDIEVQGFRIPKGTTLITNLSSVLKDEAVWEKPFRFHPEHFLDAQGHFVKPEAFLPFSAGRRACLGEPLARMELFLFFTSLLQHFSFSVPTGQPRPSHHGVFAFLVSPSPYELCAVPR
Sequence of Cytochrome P450 2C9 (P11712 whole entry): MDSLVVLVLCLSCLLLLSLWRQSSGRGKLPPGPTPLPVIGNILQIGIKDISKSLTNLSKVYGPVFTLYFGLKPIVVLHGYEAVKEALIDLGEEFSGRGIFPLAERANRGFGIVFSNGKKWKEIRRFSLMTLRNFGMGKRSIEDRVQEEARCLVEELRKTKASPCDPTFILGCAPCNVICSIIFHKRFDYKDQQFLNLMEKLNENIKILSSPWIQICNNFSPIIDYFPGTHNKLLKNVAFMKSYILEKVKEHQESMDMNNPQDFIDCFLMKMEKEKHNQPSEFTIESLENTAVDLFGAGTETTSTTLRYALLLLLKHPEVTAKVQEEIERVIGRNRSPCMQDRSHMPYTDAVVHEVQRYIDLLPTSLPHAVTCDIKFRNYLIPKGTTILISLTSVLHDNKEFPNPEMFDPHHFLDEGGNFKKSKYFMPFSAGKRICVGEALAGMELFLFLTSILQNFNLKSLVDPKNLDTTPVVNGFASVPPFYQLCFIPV

Take `CCNC(=O)N[C@H]1CC[C@@]2(C)[C@@H](CC[C@@H]3[C@@H]2CC[C@]2(C)C(=O)CC[C@@H]32)C1`: the figures for the IC50 in [1] and in data set [4] were 9.5 µM and 1 µM, respectively. In addition, in data set [2], the Papp A→B was 31.6 ×10⁻⁶ cm/s. Moreover, the kinetic solubility (as a rule, the concentration staying in solution when a stock, usually in DMSO, is diluted into the medium) in data set [3] worked out at 30 µM (≈ 10.8 µg/mL). The microsomal CLint – broadly, the capacity of the preparation to metabolise the compound, expressed as a volume cleared per time – in the data set “in vitro” worked out at 56.8 µL/min/mg. Besides, the Ratio IC50 in data set [5] was determined as 9.5. The efflux ratio (as a rule, the permeability from basolateral to apical divided by that in the opposite direction, in the common usage) in [6] amounted to 0.54. In addition, the half-life – broadly, the time needed for the level to fall by half in the phase considered – in data set [7] came to 24.4 min.
As to `C[C@]12CC[C@H](NS(N)(=O)=O)C[C@@H]1CC[C@@H]1[C@@H]2CC[C@]2(C)[C@@H](C(=O)CO)CC[C@@H]12`, the figures for the IC50 in data set [1] and in data set [4] were 14.1 µM and 1.2 µM, respectively. In addition, in data set [2], the Papp A→B was determined as 13.1 ×10⁻⁶ cm/s. The compound also displayed a solubility (kinetic) in [3] above 100 µM. For the same compound, the microsomal CLint in “in vitro” was 28.3 µL/min/mg. In addition, the Ratio IC50 in data set [5] was 11.8. For the same compound, the efflux ratio in data set [6] is 0.49. The compound further displayed a half-life in [7] of 48.9 min.
For `C[C@]12CC[C@H](O)C[C@@H]1CC[C@@H]1[C@@H]2CC[C@]2(C)[C@@H](C(=O)CO)CC[C@@H]12`, the IC50 (in general, the point on the concentration scale where inhibition reaches its midpoint) in data set [1] turned out to be 12.3 µM; in [4], 0.9 µM. Besides, in [3], the solubility (kinetic) was above 100 µM. Also, the “inhibition (INH)” value against Cytochrome P450 1A, against Cytochrome P450 2C19, at Cytochrome P450 2D6, at Cytochrome P450 3A4 and against Cytochrome P450 2C9 was “Not Active” in each case. Further, in [5], the Ratio IC50 came out at 13.7.
For the compound `CC(=O)[C@H]1CC[C@H]2[C@@H]3CC[C@H]4C[C@@H](NS(C)(=O)=O)CC[C@]4(C)[C@H]3CC[C@]12C`, the IC50 was 4.8 µM in data set [1] and 3.4 µM in [4]. Moreover, in data set [3], the solubility (kinetic) was determined as 3 µM (≈ 1.19 µg/mL). The compound further had a microsomal CLint in the data set “in vitro” of 10.3 µL/min/mg. The Ratio IC50 in [5] is 1.4. Moreover, the half-life in [7] is 135 min.
